{
  "source": "patent US20240182893A1",
  "about": "“INHIBITION OF FGR REDUCES FIBROSIS” (UNIVERSITY OF PITTSBURGH-OF THE COMMONWEALTH SYSTEM OF …, priority 2021, published 2024)",
  "key": {"Fgr [1]": {"biological_target": "T1, Fgr (Mus musculus, UniProt P14234)", "T1 construct": "endogenous in cells; host or cells: tdTOMp16+ mouse bone marrow stromal (MSC) cell line, irradiated, senescent tdTOM+ cells", "T1 sequence (P14234 whole entry)": "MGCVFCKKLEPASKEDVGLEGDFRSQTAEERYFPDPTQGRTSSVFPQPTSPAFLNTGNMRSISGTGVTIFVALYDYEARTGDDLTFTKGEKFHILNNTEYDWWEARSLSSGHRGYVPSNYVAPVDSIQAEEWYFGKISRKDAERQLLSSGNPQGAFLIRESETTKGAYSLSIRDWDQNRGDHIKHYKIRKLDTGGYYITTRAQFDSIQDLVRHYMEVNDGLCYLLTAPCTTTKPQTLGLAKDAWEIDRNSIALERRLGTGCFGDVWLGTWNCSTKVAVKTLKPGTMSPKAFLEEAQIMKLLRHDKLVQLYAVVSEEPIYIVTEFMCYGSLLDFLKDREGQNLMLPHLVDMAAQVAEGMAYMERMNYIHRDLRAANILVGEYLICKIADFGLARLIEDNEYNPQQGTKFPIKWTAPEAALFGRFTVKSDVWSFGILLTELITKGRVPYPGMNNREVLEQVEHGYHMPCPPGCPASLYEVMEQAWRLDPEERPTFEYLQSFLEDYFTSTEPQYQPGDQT", "test": "Western blot of Fgr phosphorylation in tdTOMp16+ cells (phospho-Fgr antibody)", "type": "cell-based", "description": "FIG. 7A-FIG. 7B show shRNA knockdown of Fgr in vitro and inhibition of activation of Fgr by TL02-59. FIG. 7A) The tdTOMp16+ cell line was transfected with three individual Fgr shRNAs. […] (Phospho-FGR (Tyr412) Rabbit Polyclonal Antibody. Company: Thermo Fisher Scientific, Catalogue #PA5-64583).\nFIG. 23A-FIG. 23C. […] FIG. 23A—Irradiated tdTOMp16+ non-senescent (tdTOM−) and senescent (tdTOM+) cells were cultured on the top well of the transwell, and the target C57BL/6 stromal cells were cultured on the bottom well. Cells were treated with either vehicle or 10 nM Fgr inhibitor TL02-59 and after 10 days, target cells were harvested for RNA, and RT-qPCR was performed for TGF-β and Collagen 3 genes. FIG. 23B—Inhibition of Fgr phosphorylation by TL02-59 was confirmed by western blot from the vehicle and TL02-59-treated cell lysates of irradiated senescent (tdTOM+) cells (n=3, *P=<0.05; **P=0.01). […] NS nonsignificant), P values were calculated by t test.\nThe role of Fgr in fibrosis induction was next investigated by two methods of inhibition: first, pharmacologic inhibition of Fgr was applied by adding the Fgr-specific small-molecule inhibitor TL02-59 (FIG. 23A, FIG. 23B). […] Using the transwell non-contact coculture system, the effect of a specific inhibitor of Fgr TL02-59 (10 nM) on the induction of biomarkers of fibrosis in target cells by tdTOM+ senescent cells was measured for 10 days. […]"}, "other similar kinases": {"system": "other similar kinases", "test": "Inhibition of other similar kinases", "type": "biochemical"}, "[2]": {"system": "mouse model of radiation-induced pulmonary fibrosis", "test": "Mouse model of radiation-induced pulmonary fibrosis (18 Gy), qPCR and staining of lungs", "type": "in vivo", "description": "(§1) FIG. 47. […] Relative mRNA expression of profibrotic genes (Tgf-β, Ctgf, Collagen 1a1, Collagen 3 and Collagen 4), senescence biomarkers (p16 and p21) and tyrosine kinase Fgr was evaluated by qPCR from one lobe of mouse lungs in control, irradiated and treated with Fgr inhibitor TL02-59 post irradiation. Briefly, Mice were irradiated (18 Gy), and TL02-59 treated (10 mg/kg), 3/week at day 75 for 4 weeks. (n=4-13). Statistics was performed, and individual p values were calculated by unpaired t-test.\nFIG. 48. Expression of Fgr and p16 from mouse lungs in control, irradiated, and treated with Fgr inhibitor TL02-59 post irradiation. […] Insets on the right from each group were magnified for clarity.\nas §1, with “(n=4-13),” for “(n=4-13).”"}, "[3]": {"system": "tdTOMp16+ red senescent cells", "test": "Chemokine array of media from sorted senescent tdTOMp16+ cells", "type": "cell-based, mouse", "details": "TL02-59 10 nM, 72 hours, FIG. 50", "description": "FIG. 50. […] Using chemokine array relative amounts of chemokines secreted in the media was measured. (n=2, *, p<0.05, p values were calculated using unpaired t-test)."}, "Fgr [4]": {"biological_target": "Fgr (Homo sapiens, UniProt P09769)", "sequence (P09769 whole entry, species assumed)": "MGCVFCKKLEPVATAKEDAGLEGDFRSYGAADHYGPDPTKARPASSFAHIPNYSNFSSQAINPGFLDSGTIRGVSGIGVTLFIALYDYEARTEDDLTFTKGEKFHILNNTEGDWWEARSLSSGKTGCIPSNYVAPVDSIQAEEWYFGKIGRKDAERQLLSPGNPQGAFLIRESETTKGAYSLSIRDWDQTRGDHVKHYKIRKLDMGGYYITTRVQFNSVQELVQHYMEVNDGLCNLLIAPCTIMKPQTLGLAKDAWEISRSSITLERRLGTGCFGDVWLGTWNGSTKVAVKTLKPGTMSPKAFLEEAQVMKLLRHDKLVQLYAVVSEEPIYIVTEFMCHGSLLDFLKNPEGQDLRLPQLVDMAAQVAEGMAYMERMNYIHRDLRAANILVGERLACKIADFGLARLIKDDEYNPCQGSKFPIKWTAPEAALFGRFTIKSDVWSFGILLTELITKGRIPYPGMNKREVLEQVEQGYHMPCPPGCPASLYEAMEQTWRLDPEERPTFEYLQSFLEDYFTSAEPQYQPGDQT", "details": "cited from earlier work"}, "[5]": {"details": "mice; cited from earlier work"}},
  "note": "Values joined by “and” are separate entries in the source; they are usually repeats but may differ in a detail not shown here. Equal values may be shown once. “Also recorded” adds a separate entry of the source.",
  "data": [
    {"smiles": "CCN1CCN(Cc2ccc(NC(=O)c3ccc(C)c(Oc4ncnc5cc(OC)c(OC)cc45)c3)cc2C(F)(F)F)CC1", "note": "[TL02-59]", "values": [
      {"measurement": "phosphorylation of Fgr (Tyr412)", "setting": "Fgr [1]; 0.1 μM TL02-59, tdTOMp16+ cell line, FIG. 7B", "value": "Inhibition of phosphorylation of Fgr"},
      {"measurement": "Fgr phosphorylation in irradiated senescent (tdTOM+) cells, western blot", "setting": "Fgr [1]; vehicle vs TL02-59 treated cell lysates, FIG. 23", "value": "inactivated Fgr; also recorded: inhibited"},
      {"measurement": "fold greater dose required for inhibition of other similar kinases vs Fgr", "setting": "other similar kinases", "value": "10 to 100 fold and 10-to-100 fold"},
      {"measurement": "relative mRNA expression of profibrotic genes (Tgf-β, Ctgf, Collagen 1a1, Collagen 3, Collagen 4), senescence biomarkers (p16, p21) and Fgr in lungs (qPCR)", "setting": "[2]; 18 Gy, TL02-59 10 mg/kg, 3/week at day 75 for 4 weeks, FIG. 47", "value": "reduces profibrotic and biomarkers of senescence"},
      {"measurement": "expression of Fgr and p16 proteins in mouse lungs (images)", "setting": "[2]; irradiated, TL02-59 post irradiation, FIG. 48", "value": "led to a reduction of both the proteins"},
      {"measurement": "secretion of senescence associated secretory chemokines (chemokine array)", "setting": "[3]", "value": "reduces secretion of senescence associated secretory chemokines"},
      {"measurement": "kinases inhibited at 10 nM concentration", "setting": "Fgr [4]; 10 nM", "value": "inhibits only Fgr"},
      {"measurement": "concentration with complete inhibition of Fgr", "setting": "Fgr [4]", "value": "above 10 nM"},
      {"measurement": "concentration with partial inhibition of Fgr", "setting": "Fgr [4]", "value": "0.1 to 1", "unit": "nM"},
      {"measurement": "selectivity for Fgr over other kinases", "setting": "Fgr [4]", "value": "remarkably selective for Fgr; also recorded: Fgr specific in the nanomolar concentration"},
      {"measurement": "oral bioavailability", "setting": "[5]", "value": "orally bioavailable"},
      {"measurement": "plasma half-life", "setting": "[5]", "value": 6, "unit": "h"}
    ]}
  ]
}
